Consider 1 compound from article PMC7070709, “Design, Synthesis, and In Vitro Evaluation of Hydroxybenzimidazole-Donepezil Analogues as Multitarget-Directed Ligands for the Treatment of Alzheimer’s Disease” (Molecules, 2020).

A short description of data set [1]: Cu(II) chelation by potentiometry. It counts as physicochemical. The note with it: pH 7.4; read-out: conditional dissociation constant (K´d) for the copper complex. The text has this:
The metal chelating ability of hybrids 7 and 12, due to the BIM bidentate unity with (N,O) coordination mode, was studied by potentiometry. Figure 3A,B show a change in the deprotonation profile of the ligand titration curves due to the presence of the metal ions. In fact, the curves for the Cu(II)/L systems lie well below that of the ligand, while for the Zn(II)/L systems stay under for a > −1 (compound 7) or a > 0 (compound 12), thus supporting the formation of 1:1 and 1:2 M/L ratio complexes with the deprotonated and mono-protonated forms of the ligand and with relative metal dependent stability order (Cu > Zn). Table 1 contains the equilibrium models obtained from the fitting analysis of the potentiometric curves by program Hyperquad. In these equilibrium models, which the coordination core of the compounds integrates the bidentate (N,O) BIM moiety, MHL and MH2L2 correspond to species with the ligand containing one protonated nitrogen atom at the piperazine moiety, ML and ML2 correspond to complexes involving the completely deprotonated form of the ligand while MH-1L2 are mixed ligand-hydroxo metal complexes.
Solutions: the aqueous copper (CuCl2, 0.015 M) and zinc (ZnCl2, 0.0156 M) stock solutions for potentiometric equilibrium studies were prepared from 1000 ppm standards (Titrisol) and their metal content was evaluated by atomic absorption. The titrant solution (0.1 M KOH) was obtained from a carbonate-free commercial concentrate (Titrisol) and standardized by potentiometric titration with potassium hydrogen phthalate. The titrant solution was discarded whenever the percentage of carbonate (Gran’s method) was about 0.5% of the total amount of base.
Measurements: compounds 7 and 12 were titrated in 50% (w/w) DMSO/H2O medium, at T = 25.0 ± 0.1 °C and ionic strength (I) 0.1 M KCl, using 0.1 M KOH as titrant. Both glass and Ag/AgCl reference electrodes were previously conditioned in DMSO/H2O mixtures with increasing amounts of DMSO and the response of the glass electrode was controlled by strong acid–strong base (HCl/KOH) calibrations with the determination of the Nernst parameters by Gran’s method. […] All titrations were performed in duplicate and under the stated experimental conditions the pKw value (13.6) was determined and subsequently used in the computations. The stepwise protonation constant of the ligand, Ki = [HiL]/([Hi–1L][H]), and the overall metal–complex stability constants, βMmHhLl = [MmHhLl]/([M]^m[H]^h[L]^l), were calculated by fitting the potentiometric titration data with Hyperquad 2008 [26]. The metal hydrolysis constants were determined under the defined experimental conditions (I = 0.1 M KCl, 50% w/w DMSO/H2O, T = 25.0 ± 0.1 °C) and the following values of stability constants were included in the fitting of experimental data towards the equilibrium models related to the Cu^2+/L and Zn^2+/L systems: log βCu2H−2 = −9.99; log βZnH−2 = −14.79, log βZnH−3 = −23.48. Species distribution curves were plotted with the Hyss program.

In data set [2] the target is T1, AChE (type VI-S, from electric eel) (Electrophorus electricus, UniProt O42275).
T1 construct: purchased type VI-S
T1 sequence (O42275 24-633): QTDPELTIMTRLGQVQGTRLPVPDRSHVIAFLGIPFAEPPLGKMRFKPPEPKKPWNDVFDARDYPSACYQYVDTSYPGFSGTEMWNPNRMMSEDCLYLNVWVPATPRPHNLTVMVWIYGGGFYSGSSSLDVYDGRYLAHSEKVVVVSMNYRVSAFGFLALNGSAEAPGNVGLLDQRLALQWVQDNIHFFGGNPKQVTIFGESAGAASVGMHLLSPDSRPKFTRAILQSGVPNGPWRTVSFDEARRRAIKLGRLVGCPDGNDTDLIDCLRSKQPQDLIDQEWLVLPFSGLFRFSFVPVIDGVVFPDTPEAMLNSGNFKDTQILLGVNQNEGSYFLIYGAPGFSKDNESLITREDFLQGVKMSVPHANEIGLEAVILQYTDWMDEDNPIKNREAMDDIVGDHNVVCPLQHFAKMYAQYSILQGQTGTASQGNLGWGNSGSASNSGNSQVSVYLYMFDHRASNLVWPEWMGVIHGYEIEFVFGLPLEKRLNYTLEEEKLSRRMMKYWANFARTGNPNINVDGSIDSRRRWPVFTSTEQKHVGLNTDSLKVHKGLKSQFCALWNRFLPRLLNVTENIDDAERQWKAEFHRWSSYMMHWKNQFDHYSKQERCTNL
To be noted: read-out: TcAChE Inhibition IC50; cited from earlier work.

For data set [3], the target named is T2, Aβ1–42 (Homo sapiens, UniProt P05067).
T2 construct: Aβ1–42 (40 μM) was incubated at 37 °C, for 24 h with or without Cu(II) (40 μM)
T2 sequence (P05067 672-713): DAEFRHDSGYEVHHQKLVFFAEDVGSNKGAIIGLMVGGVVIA
Further details: method as in PMID 32171933. The note with it: footnote e; cited from earlier work.

In data set [4] the target is T3, Aβ1–42 with Cu(II) (Homo sapiens, UniProt P05067).
T3 construct: Aβ1–42 (40 μM) was incubated at 37 °C, for 24 h with or without Cu(II) (40 μM)
T3 sequence (P05067 672-713): as above
Also on record: method as in PMID 32171933. The note with it: copper 40 µM; footnote e; cited from earlier work.

The conditions of data set [5]: 50% w/w DMSO/water, I = 0.1 M KCl, 25.0 °C; cited from earlier work.
For data set [6] the following is noted: pH 7.4, CL/CM = 10, CM = 10^−6 M; cited from earlier work.

Consider `O=C(NCC1CCN(Cc2ccccc2)CC1)c1ccc2nc(-c3ccccc3O)[nH]c2c1` [Compound 1], for which the Kd in data set [1] came out at 34 nM. For the same compound, the IC50 (in general, the concentration needed to halve the response being measured) in data set [2] was 4200 ± 800 nM. Further, the “Aβ1–42 Aggregation Inhibition, Self-Induced” value in data set [3] is reported as 48.8 ^e %. In addition, in data set [4], the “Aβ1–42 Aggregation Inhibition, Cu-Induced” value was 69.0 ^e %. For the same compound, in data set [5], the “log K1, stepwise protonation constant (011)” value is 8.671(1); the “log K2, stepwise protonation constant (021)” value is given as 7.39(1); the “log K3, stepwise protonation constant (031)” value was 3.21(1). The “pZn (pM = −log[M])” value in data set [6] is reported as 6.3.
